Test results from patent US10875876B2, “Cyclized sulfamoylarylamide derivatives and the use thereof as medicaments for the treatment of hepatitis B” (priority 2015, dated 2020).
Read-outs that look alike come from different tables or passages of the source.

Assays:
HBV = assay: anti HBV activity, HepG2.117 cell line, intracellular HBV DNA by realtime PCR; format: cell-based
Procedure, shortened: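 Readout was intracellular HBV DNA by real-time PCR (HBV-specific primers and probe) after 3 days of compound exposure. Serial dilutions were tested in duplicate on HepG2.117 cells, a stable inducible HBV producer in which replication is switched on when doxycycline is absent.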

[1] = Cytotoxicity in HepG2 cells, Resazurin assay; conditions: human, HepG2 cells, TOX-HepG2-4 d CC50 (μM), HepG2 cells incubated for 4 days, viability by Resazurin assay
[2] = Hepatitis B virus, HepG2.117, 72 h, HepG2.117 cell line (Tet-off), 3 days of treatment, intracellular HBV DNA quantified by realtime PCR, read-out: HBV-AVE-HepG2.117 EC50

SMILES	EC50 (HBV; [2])	CC50 at 4 days [1]	EC50 (HBV; HepG2.117 cell line (Tet-off), 3 days of treatment, intracellular HBV DNA quantified by realtime PCR, read-out: HBV-AVE-HepG2.117 EC50)	EC50 (HBV; Hepatitis B virus, HepG2.117, 72 h, read-out: HBV-AVE-HepG2.117 EC50 (μM))
Cn1cc2c(c1C(=O)Nc1ccc(F)c(C#N)c1)OCC(C)(CO)NS2(=O)=O (single isomer, unassigned) [Compound 210a, N-(3-cyano-4-fluoro-phenyl)-3-(hydroxymethyl)-3,7-dimethyl-1,1-dioxo-2,4-dihydropyrrolo[3,4-b][1,4,5]oxathiazepine-6-carboxamide]	0.037 µM	> 25 µM	–	–
CC1CCOc2c(cn(C)c2C(=O)Nc2ccc(F)c(F)c2)S(=O)(=O)N1 (centres unmarked) [Compound 21, N-(3,4-difluorophenyl)-3,8-dimethyl-1,1-dioxo-2,3,4,5-tetrahydropyrrolo[3,4-b][1,4,5]oxathiazocine-7-carboxamide]	0.15 µM	> 25 µM	–	–
Cn1cc2c(c1C(=O)Nc1ccc(F)c(C#N)c1)C=CC1(COC1)NS2(=O)=O [Compound 140, N-(3-cyano-4-fluoro-phenyl)-7-methyl-1,1-dioxo-spiro[2H-pyrrolo-[3,4-f]thiazepine-3,3′-oxetane]-6-carboxamide]	0.062 µM	> 25 µM	–	–
CC(NCC(F)(F)F)C1COc2c(cn(C)c2C(=O)Nc2ccc(F)c(C#N)c2)S(=O)(=O)N1 (single isomer, unassigned) [Compound 161a, N-(3-cyano-4-fluoro-phenyl)-7-methyl-1,1-dioxo-3-[1-(2,2,2-trifluoroethylamino)ethyl]-3,4-dihydro-2H-pyrrolo[3,4-b][1,4,5]oxathiazepine-6-carboxamide]	–	> 25 µM	0.049 µM	–
C[C@H](O)[C@H]1COc2c(cn(C)c2C(=O)Nc2ccc(F)c(C(F)F)c2)S(=O)(=O)N1 [Compound 64, (3R)—N-[3-(difluoromethyl)-4-fluoro-phenyl]-3-[(1S)-1-hydroxyethyl]-7-methyl-1,1-dioxo-3,4-dihydro-2H-pyrrolo[3,4-b][1,4,5]oxathiazepine-6-carb oxamide]	0.008 µM	> 25 µM	–	–
CC(C)N1CCc2c(cn(C)c2C(=O)Nc2ccc(F)c(F)c2)S1(=O)=O [Compound 16, N-(3,4-difluorophenyl)-2-isopropyl-6-methyl-1,1-dioxo-3,4-dihydropyrrolo[3,4-e]thiazine-5-carboxamide]	0.23 µM	> 25 µM	–	–
Cn1cc2c(c1C(=O)Nc1ccc(F)c(C#N)c1)CCC(C(C)(O)C(F)(F)F)NS2(=O)=O (centres unmarked) [Compound 117, N-(3-cyano-4-fluoro-phenyl)-7-methyl-1,1-dioxo-3-(2,2,2-trifluoro-1-hydroxy-1-methyl-ethyl)-2,3,4,5-tetrahydropyrrolo[3,4-f]thiazepine-6-carboxamide]	0.01 µM	> 25 µM	–	–
C[C@H](O)[C@H]1COc2c(cn(C)c2C(=O)Nc2ccc(F)c(C#N)c2)S(=O)(=O)N1 [Compound 65, (3R)—N-(3-cyano-4-fluoro-phenyl)-3-[(1S)-1-hydroxyethyl]-7-methyl-1,1-dioxo-3,4-dihydro-2H-pyrrolo[3,4-b][1,4,5]oxathiazepine-6-carboxamide]	0.007 µM	> 25 µM	–	–
Cn1ccc(CC2(C)COc3c(cn(C)c3C(=O)Nc3ccc(F)c(F)c3)S(=O)(=O)N2)n1 (racemic) [Compound 167, N-(3,4-difluorophenyl)-3,7-dimethyl-3-[(1-methylpyrazol-3-yl)methyl]-1,1-dioxo-2,4-dihydropyrrolo[3,4-b][1,4,5]oxathiazepine-6-carboxamide]	0.041 µM	> 25 µM	–	–
C[C@H]1CCc2c(cn(C)c2C(=O)Nc2ccc(F)c(C(F)F)c2)S(=O)(=O)N1 (single isomer, unassigned) [Compound 55, (3*S)—N-[3-(difluoromethyl)-4-fluoro-phenyl]-3,7-dimethyl-1,1-dioxo-2,3,4,5-tetrahydropyrrolo[3,4-f]thiazepine-6-carboxamide]	0.003 µM	> 25 µM	–	–
Cn1cc2c(c1C(=O)Nc1ccc(F)c(F)c1)OC[C@@H](c1ccccc1)NS2(=O)=O [Compound 25, (3R)—N-(3,4-difluorophenyl)-7-methyl-1,1-dioxo-3-phenyl-3,4-dihydro-2H-pyrrolo[3,4-b][1,4,5]oxathiazepine-6-carboxamide]	0.022 µM	> 25 µM	–	–
C[C@H]1C=Cc2c(cn(C)c2C(=O)Nc2ccc(F)c(C#N)c2)S(=O)(=O)N1 (single isomer, unassigned) [Compound 32, (*S)—N-(3-cyano-4-fluoro-phenyl)-3,7-dimethyl-1,1-dioxo-2,3-dihydropyrrolo[3,4-f]thiazepine-6-carboxamide]	0.003 µM	> 25 µM	–	–
CC(C)C1CCc2c(cn(C)c2C(=O)Nc2ccc(F)c(C#N)c2)S(=O)(=O)N1 (centres unmarked) [Compound 85, N-(3-cyano-4-fluoro-phenyl)-3-isopropyl-7-methyl-1,1-dioxo-2,3,4,5-tetrahydropyrrolo[3,4-f]thiazepine-6-carboxamide]	0.007 µM	> 25 µM	–	–
CCC(O)[C@@H]1COc2c(cn(C)c2C(=O)Nc2ccc(F)c(F)c2)S(=O)(=O)N1 (single isomer, unassigned) [Compound 142a, N-(3,4-difluorophenyl)-3-(1-hydroxypropyl)-7-methyl-1,1-dioxo-3,4-dihydro-2H-pyrrolo[3,4-b][1,4,5]oxathiazepine-6-carboxamide]	0.065 µM	> 25 µM	–	–
CC#CCC1COc2c(cn(C)c2C(=O)Nc2ccc(F)c(F)c2)S(=O)(=O)N1 (centres unmarked) [Compound 205, 3-but-2-ynyl-N-(3,4-difluorophenyl)-7-methyl-1,1-dioxo-3,4-dihydro-2H-pyrrolo[3,4-b][1,4,5]oxathiazepine-6-carboxamide]	–	> 25 µM	–	0.05 µM
Cn1cc2c(c1C(=O)Nc1ccc(F)c(C#N)c1F)CCC(C(C)(C)O)NS2(=O)=O (centres unmarked) [Compound 185, N-(3-cyano-2,4-difluoro-phenyl)-3-(1-hydroxy-1-methyl-ethyl)-7-methyl-1,1-dioxo-2,3,4,5-tetrahydropyrrolo[3,4-f]thiazepine-6-carboxamide]	0.041 µM	> 25 µM	–	–
Cn1cc2c(c1C(=O)Nc1ccnc(C(F)F)c1)OC[C@H](C(C)(C)O)NS2(=O)=O [Compound 151, (3R)—N-[2-(difluoromethyl)-4-pyridyl]-3-(1-hydroxy-1-methyl-ethyl)-7-methyl-1,1-dioxo-3,4-dihydro-2H-pyrrolo[3,4-b][1,4,5]oxathiazepine-6-carboxamide]	0.076 µM	> 25 µM	–	–
C[C@H](O)[C@H]1CCc2c(cn(C)c2C(=O)Nc2cc(F)c(F)c(F)c2)S(=O)(=O)N1 [Compound 104, (3R)-3-[(1S)-1-hydroxyethyl]-7-methyl-1,1-dioxo-N-(3,4,5-trifluorophenyl)-2,3,4,5-tetrahydropyrrolo[3,4-f]thiazepine-6-carboxamide]	0.007 µM	> 25 µM	–	–
C[C@H](O)[C@H]1CCc2c(cn(C)c2C(=O)Nc2ccnc(Br)c2)S(=O)(=O)N1 [Compound 111, (3R)—N-(2-bromo-4-pyridyl)-3-[(1S)-1-hydroxyethyl]-7-methyl-1,1-dioxo-2,3,4,5-tetrahydropyrrolo[3,4-f]thiazepine-6-carboxamide]	0.089 µM	> 25 µM	–	–
Cn1cc2c(c1C(=O)Nc1ccc(F)c(F)c1)OCC(C1CCN(C(=O)OC(C)(C)C)CC1)NS2(=O)=O (centres unmarked) [Compound 72, tert-butyl 4-[6-[(3,4-difluorophenyl)carbamoyl]-7-methyl-1,1-dioxo-3,4-dihydro-2H-pyrrolo[3,4-b][1,4,5]oxathiazepin-3-yl]piperidine-1-carboxylate]	0.05 µM	> 25 µM	–	–
Cc1ccc(NC(=O)c2c(F)ccc3c2OC[C@H](C(C)C)NS3(=O)=O)cc1F [compound 232]	> 0.5 µM	> 25 µM	–	–
C[C@@H](O)[C@H]1COc2c(cn(C)c2C(=O)Nc2ccc(F)c(F)c2)S(=O)(=O)N1 [Compound 33, (3R)—N-(3,4-difluorophenyl)-3-[(1R)-1-hydroxyethyl]-7-methyl-1,1-dioxo-3,4-dihydro-2H-pyrrolo[3,4-b][1,4,5]oxathiazepine-6-carboxamide]	0.053 µM	> 25 µM	–	–
Cn1cc2c(c1C(=O)Nc1ccc(F)c(C#N)c1)CCC1(COC1)NS2(=O)=O [Compound 138, N-(3-cyano-4-fluoro-phenyl)-7-methyl-1,1-dioxo-spiro[4,5-dihydro-2H-pyrrolo[3,4-f]thiazepine-3,3′-oxetane]-6-carboxamide]	0.029 µM	> 25 µM	–	–
CC1CCc2c(nn(C)c2C(=O)Nc2ccc(F)c(F)c2)S(=O)(=O)N1 (centres unmarked) [compound 246]	> 0.13 µM	> 25 µM	–	–
C[C@H]1CCc2c(cn(C)c2C(=O)Nc2ccnc(Cl)c2)S(=O)(=O)N1 [Compound 166, (3S)—N-(2-chloro-4-pyridyl)-3,7-dimethyl-1,1-dioxo-2,3,4,5-tetrahydropyrrolo[3,4-f]thiazepine-6-carboxamide]	0.056 µM	> 25 µM	–	–
C[C@H]1C=Cc2c(cn(C)c2C(=O)Nc2ccc(F)c(C(F)(F)F)c2)S(=O)(=O)N1 (single isomer, unassigned) [Compound 30, (*S)—N-[4-fluoro-3-(trifluoromethyl)phenyl]-3,7-dimethyl-1,1-dioxo-2,3-dihydropyrrolo[3,4-f]thiazepine-6-carboxamide]	0.013 µM	> 25 µM	–	–
COC(=O)C1COc2c(cn(C)c2C(=O)Nc2ccc(F)c(F)c2)S(=O)(=O)N1 (centres unmarked) [compound 243]	> 0.5 µM	> 25 µM	–	–
Cc1cc(NC(=O)c2c3c(cn2C)S(=O)(=O)N[C@@H]([C@H](C)O)CO3)ccc1F [Compound 200, (3R)—N-(4-fluoro-3-methyl-phenyl)-3-[(1S)-1-hydroxyethyl]-7-methyl-1,1-dioxo-3,4-dihydro-2H-pyrrolo[3,4-b][1,4,5]oxathiazepine-6-carboxamide]	0.084 µM	> 25 µM	–	–
